Measurements published in ChEMBL document CHEMBL1201862, “PubChem BioAssay data set” (2004).
Active and inactive are the calls of the source.

Tests used:
[1] = cytotoxicity toward Colo320 cells – cell-based, CellTiter-Glo luminescence, IC50, dose response (AID 1117334); format: functional; details: COLO 320
[2] = cytotoxicity toward HCT116 cells – cell-based, CellTiter-Glo luminescence, IC50, dose response (AID 1117332); format: functional; details: HCT-116
[3] = cytotoxicity toward HT-29 cells – cell-based, CellTiter-Glo luminescence, IC50, dose response (AID 1117330); format: functional
[4] = CellTiter-Glo luminescent dose response of DLD-1 viability loss (AID 1117352); format: functional
[5] = HCT116 cell viability decrease, GSK3B pretreatment – CellTiter-Glo, IC50, dose response (AID 1117339); format: functional; details: HCT-116
[6] = SNU-C1 cell viability reduction, dose response, CellTiter-Glo luminescence (AID 1117323); format: functional, cell-based
[7] = Concentration-dependent survival of SW480 colon cancer line, luminescence detection with CellTiter-Glo, half-maximal inhibitory concentration (AID 1117338); format: functional
[8] = RKO cell viability reduction, dose response, CellTiter-Glo luminescence (AID 1117322); format: functional
Protein skinhead-1 = molecular target: T1, Protein skinhead-1 (Caenorhabditis elegans, UniProt P34707); format: functional
T1 sequence (P34707 whole entry): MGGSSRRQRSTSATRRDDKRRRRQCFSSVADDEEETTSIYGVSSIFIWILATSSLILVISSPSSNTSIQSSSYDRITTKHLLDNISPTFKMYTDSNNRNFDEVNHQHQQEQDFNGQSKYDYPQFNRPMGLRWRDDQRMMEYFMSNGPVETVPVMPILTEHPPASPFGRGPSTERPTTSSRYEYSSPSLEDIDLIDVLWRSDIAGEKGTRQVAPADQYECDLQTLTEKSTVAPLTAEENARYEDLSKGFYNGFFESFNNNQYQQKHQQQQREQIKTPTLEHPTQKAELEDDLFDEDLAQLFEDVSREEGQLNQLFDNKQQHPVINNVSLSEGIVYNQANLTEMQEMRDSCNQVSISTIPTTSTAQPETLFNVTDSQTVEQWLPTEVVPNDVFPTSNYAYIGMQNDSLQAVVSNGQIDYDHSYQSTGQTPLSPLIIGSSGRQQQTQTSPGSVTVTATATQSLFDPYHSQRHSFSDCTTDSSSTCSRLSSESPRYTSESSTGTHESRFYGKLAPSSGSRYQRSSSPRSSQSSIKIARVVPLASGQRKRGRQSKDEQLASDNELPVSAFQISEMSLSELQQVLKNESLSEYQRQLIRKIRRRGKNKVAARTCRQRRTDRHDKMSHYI

[9] = molecular target: T2, Heat shock factor protein 1 (Mus musculus, UniProt P38532); assay: inhibition of MG132-induced HSE-luciferase signal, confirmation, cell-based, NIH3T3, luminescence, dose retest (AID 2382); format: functional;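 also: NIH3T3 fibroblasts with HSF1-driven luciferase reporter stressed by proteasome inhibitor MG132; luminescence from HSF1-driven luciferase expression after 8 hours of MG132 stress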
T2 sequence (P38532 whole entry): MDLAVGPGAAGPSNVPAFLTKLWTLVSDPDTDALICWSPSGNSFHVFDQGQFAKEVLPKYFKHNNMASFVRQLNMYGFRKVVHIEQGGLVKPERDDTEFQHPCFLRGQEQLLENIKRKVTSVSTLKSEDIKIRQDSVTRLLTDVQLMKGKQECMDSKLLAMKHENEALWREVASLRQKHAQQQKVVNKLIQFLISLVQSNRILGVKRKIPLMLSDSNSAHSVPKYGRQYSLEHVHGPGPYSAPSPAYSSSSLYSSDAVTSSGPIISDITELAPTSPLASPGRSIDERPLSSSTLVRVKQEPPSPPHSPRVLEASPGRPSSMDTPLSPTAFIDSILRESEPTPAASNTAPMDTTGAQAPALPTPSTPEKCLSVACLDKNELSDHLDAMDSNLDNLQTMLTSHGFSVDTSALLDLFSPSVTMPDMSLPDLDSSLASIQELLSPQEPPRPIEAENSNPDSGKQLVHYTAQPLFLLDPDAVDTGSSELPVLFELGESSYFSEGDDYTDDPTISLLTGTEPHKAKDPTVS

[10] = molecular target: T3, Long-chain-fatty-acid--AMP ligase FadD28 (Mycobacterium tuberculosis, UniProt P9WQ59); assay: Fluorescence polarization aasay to screen for inhibitors that compete for the binding of FadD28 to a bisubstrate Measured in Biochemical System Using Plate Reader - 2147-01_Inhibitor_Dose_CherryPick_Activity.; format: functional, Mycobacterium tuberculosis H37Rv
T3 sequence (P9WQ59 whole entry): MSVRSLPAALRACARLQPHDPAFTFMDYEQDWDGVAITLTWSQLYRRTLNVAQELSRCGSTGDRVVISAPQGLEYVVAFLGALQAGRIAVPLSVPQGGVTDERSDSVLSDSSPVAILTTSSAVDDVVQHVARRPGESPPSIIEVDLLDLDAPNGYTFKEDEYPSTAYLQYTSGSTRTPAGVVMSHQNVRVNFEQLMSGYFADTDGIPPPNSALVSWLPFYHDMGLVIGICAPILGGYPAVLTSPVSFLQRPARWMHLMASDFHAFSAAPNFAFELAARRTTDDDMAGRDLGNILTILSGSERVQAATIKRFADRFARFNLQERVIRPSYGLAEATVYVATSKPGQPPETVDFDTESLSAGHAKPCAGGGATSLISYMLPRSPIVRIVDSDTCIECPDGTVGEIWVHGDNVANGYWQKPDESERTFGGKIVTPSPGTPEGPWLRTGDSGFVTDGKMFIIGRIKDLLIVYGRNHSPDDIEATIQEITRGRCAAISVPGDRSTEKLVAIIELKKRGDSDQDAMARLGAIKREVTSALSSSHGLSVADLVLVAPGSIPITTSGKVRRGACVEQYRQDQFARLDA

Streptokinase A = molecular target: T4, Streptokinase A (Streptococcus pyogenes serotype M1, UniProt P10520); assay: S. pyogenes streptokinase expression inhibitors, potency, dose response, plasminogen activation absorbance, OD405 (AID 1914); format: functional, Streptococcus pyogenes M1 GAS;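 also: secreted streptokinase activity via plasminogen activation per viability signal from cell pellet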
T4 sequence (P10520 whole entry): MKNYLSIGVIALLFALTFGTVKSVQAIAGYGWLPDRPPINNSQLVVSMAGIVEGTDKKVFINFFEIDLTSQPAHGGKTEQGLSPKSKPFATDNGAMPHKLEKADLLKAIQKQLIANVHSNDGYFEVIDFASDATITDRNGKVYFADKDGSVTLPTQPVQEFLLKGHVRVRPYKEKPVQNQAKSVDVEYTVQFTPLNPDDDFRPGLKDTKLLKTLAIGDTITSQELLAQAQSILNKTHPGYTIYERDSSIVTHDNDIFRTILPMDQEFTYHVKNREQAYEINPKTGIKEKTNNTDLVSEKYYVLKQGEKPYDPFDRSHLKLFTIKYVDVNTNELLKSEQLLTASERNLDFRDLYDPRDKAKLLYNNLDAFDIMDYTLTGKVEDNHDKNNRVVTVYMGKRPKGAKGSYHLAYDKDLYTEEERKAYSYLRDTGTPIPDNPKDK

[11] = tested on: Streptococcus sp. 'group A'; assay: growth inhibition of control SK(-) GAS strain, dose response, counter-screen for streptokinase expression inhibitor project, luminescence, kanamycin, BacTiterGlo, confirmation (AID 1900); format: functional, organism-based
Streptococcus = assay: Group A Streptococcus viability loss, dose response, counter-screen for streptokinase expression inhibitor project, luminescence, BacTiterGlo (AID 1915); format: functional, organism-based;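 also: potency for reduction of bacterial viability or growth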
[12] = molecular target: T5, High affinity choline transporter 1 (Homo sapiens, UniProt Q9GZV3); assay: CHT inhibitors, dose response, cell-based, 5-point CRC, membrane potential dye (AID 504840); format: functional
T5 sequence (Q9GZV3 whole entry): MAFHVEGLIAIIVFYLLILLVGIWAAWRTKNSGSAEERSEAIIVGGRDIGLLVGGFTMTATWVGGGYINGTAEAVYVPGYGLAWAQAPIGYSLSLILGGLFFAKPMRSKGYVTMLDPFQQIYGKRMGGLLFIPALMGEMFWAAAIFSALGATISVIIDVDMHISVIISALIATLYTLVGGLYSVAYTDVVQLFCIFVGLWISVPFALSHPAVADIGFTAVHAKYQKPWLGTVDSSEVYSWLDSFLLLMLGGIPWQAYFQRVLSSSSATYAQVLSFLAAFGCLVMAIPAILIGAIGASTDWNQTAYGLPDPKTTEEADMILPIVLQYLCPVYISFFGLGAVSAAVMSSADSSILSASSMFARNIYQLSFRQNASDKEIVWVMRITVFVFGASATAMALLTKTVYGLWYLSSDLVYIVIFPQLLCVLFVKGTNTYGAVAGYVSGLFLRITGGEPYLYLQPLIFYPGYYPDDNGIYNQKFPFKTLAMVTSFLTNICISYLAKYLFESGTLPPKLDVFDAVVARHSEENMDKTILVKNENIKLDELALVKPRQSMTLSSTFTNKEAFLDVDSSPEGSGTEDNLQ

[13] = molecular target: NAD-dependent protein deacylase sirtuin-5, mitochondrial (Homo sapiens, UniProt Q9NXA8); assay: SIRT5 desuccinylase inhibitors, dose response, biochemical, fluorescence imaging, cherry-pick, set 5 (AID 720591);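 also: desuccinylation of succinyl peptide AMC substrate read as fluorescence after trypsin release; potency of inhibitors that lower fluorescence and may act on trypsin instead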
P388 = assay: cells; format: functional; details: Mus musculus
P388/ADR = assay: cells; format: functional; details: Mus musculus
[14] = Shn3 3'UTR reporter inhibitors, dose response, cell-based, Clone20 osteoblasts, firefly luciferase, cherry-picked (AID 624132); format: functional;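 also: firefly luciferase luminescence from reporter carrying the Shn3 3'UTR in osteoblasts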
[15] = inhibitors of HIV Env-driven cell fusion, dose response, cherry-pick (AID 652057); format: functional, cell-based
[16] = control 3'UTR Renilla luciferase suppression, dose response, counter-screen for Shn3 inhibitor project, cell-based, Clone20-Shn3RL, cherry-picked (AID 624133); format: functional
SN12K1 = assay: cells; format: functional; details: Homo sapiens
[17] = HepG2 cell cytotoxicity, dose response, cytotoxicity control for Shn3 inhibitor project, CellTiter-Glo, cherry-picked (AID 624134); format: functional, cell-based
Paired box protein Pax-8 = Paired box protein Pax-8 (Homo sapiens, UniProt Q06710); assay: inhibitors of PAX8-driven TPO luciferase reporter, dose response, RMG-I cells, cherry-pick (AID 687027); format: functional, cell-based;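 also: luciferase reporter driven by Pax8 target thyroperoxidase promoter measured by SteadyGlo luminescence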
[18] = CEM21 lymphoblast cell cytotoxicity, dose response, cytotoxicity control for viral fusion inhibitor project, CellTiter-Glo luminescence, cherry-picked (AID 652042); format: functional, cell-based;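 also: potency for signal decrease meaning cytotoxicity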
[19] = off-target signal loss in HeLa-CEM21 co-culture – HeLa F-luc CTL cells, cherry-picked, counter-screen for HIV-1 Env fusion inhibitor project, dose response (AID 652040); format: functional, cell-based;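 also: potency for signal decrease marking cytotoxic or nonspecific inhibition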
[20] = molecular target: 5-hydroxytryptamine receptor 2A (Mus musculus, UniProt P35363); format: functional, cell-based;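 also: CHO-K1 cells with tagged receptor and beta-arrestin; agonist potency measured as compound-induced activation of the receptor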
Mu-type opioid receptor = Mu-type opioid receptor (Homo sapiens, UniProt P35372); format: functional, cell-based;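 also: U2OS cells with beta-arrestin recruitment to OPRM1 by beta-gal complementation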
[21] = P. falciparum Dd2 growth inhibitors, dose response, SYBR Green, cherry-picked samples (AID 1159567); format: functional, cell-based
[22] = inhibitors of clade B AD8 Env fusion, dose response, cell-based, cherry-pick (AID 652062); format: functional;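 also: luciferase signal from cell-cell fusion driven by HIV-1 clade B AD8 Env; potency is for inhibitors of fusion seen as a drop in luminescence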

NAD-dependent protein deacylase sirtuin-5, mitochondrial, sequence (Q9NXA8 whole entry): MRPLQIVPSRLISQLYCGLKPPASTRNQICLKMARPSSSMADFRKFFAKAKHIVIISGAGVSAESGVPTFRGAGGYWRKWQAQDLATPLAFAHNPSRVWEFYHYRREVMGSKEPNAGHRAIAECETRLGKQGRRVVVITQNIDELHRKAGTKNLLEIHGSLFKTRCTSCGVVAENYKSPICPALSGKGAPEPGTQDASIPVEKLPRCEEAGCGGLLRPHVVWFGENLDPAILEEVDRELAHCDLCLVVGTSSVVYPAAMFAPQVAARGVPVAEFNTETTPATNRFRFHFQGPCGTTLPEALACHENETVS
Mu-type opioid receptor, sequence (P35372 whole entry): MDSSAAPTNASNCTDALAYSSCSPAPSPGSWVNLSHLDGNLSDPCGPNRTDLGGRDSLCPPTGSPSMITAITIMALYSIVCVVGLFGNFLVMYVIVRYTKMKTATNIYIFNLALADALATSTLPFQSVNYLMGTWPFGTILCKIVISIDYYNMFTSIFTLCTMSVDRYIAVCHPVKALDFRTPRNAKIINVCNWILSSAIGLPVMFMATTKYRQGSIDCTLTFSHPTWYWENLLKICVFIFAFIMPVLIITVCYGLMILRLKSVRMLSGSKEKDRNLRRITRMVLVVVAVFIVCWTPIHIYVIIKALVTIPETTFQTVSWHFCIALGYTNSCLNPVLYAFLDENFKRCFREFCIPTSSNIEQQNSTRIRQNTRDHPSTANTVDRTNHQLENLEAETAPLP
Paired box protein Pax-8, sequence (Q06710 whole entry, the tested form may be a part): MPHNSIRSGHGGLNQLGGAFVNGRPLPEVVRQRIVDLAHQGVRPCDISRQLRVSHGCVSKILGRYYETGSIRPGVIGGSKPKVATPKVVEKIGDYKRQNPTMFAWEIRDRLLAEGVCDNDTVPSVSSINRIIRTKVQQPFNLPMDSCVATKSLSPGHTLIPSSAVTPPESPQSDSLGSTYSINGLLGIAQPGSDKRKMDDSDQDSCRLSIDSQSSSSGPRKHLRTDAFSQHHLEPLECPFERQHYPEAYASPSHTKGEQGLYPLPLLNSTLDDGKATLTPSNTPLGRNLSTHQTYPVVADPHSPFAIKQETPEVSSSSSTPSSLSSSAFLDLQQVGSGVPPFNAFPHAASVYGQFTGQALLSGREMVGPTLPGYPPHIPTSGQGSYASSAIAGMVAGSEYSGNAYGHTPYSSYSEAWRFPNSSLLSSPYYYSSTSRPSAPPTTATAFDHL
5-hydroxytryptamine receptor 2A, sequence (P35363 whole entry): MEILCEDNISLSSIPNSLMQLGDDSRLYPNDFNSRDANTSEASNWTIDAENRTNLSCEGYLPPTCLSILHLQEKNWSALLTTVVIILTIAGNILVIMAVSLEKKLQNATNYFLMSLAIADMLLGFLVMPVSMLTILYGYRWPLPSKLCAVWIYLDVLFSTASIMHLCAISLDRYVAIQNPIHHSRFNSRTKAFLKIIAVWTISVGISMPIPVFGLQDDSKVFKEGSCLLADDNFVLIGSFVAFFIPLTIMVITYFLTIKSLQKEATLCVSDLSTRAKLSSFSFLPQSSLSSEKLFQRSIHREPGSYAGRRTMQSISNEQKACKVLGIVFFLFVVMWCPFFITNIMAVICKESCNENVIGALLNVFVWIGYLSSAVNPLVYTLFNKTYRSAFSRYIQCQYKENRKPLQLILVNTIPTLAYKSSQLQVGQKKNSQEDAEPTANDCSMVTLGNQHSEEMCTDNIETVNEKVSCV

For CCCCCCOC(=O)c1cccnc1, which IC50 [1] is on record?
Its IC50 is > 20 µM (inactive).

And the IC50 [2]?
Its IC50 is > 20 µM (inactive).

And the IC50 [3]?
The IC50 was > 20 µM (inactive).

And the IC50 [4]?
Its IC50 is > 20 µM (inactive).

And the IC50 [5]?
The IC50 was > 20 µM (inactive).

And the IC50 [6]?
The IC50 was > 20 µM (inactive).

And the IC50 [7]?
The IC50 was > 20 µM (inactive).

And the IC50 [8]?
The IC50 was > 20 µM (inactive).

Which IC50 (Protein skinhead-1) does the source give for O=C(Nc1ccc(CN2CCOCC2)cc1)c1cc2ccccc2o1 here?
The IC50 was 15.4 µM (active).

For CC(C)OC(=O)CSc1nnc(SCc2cccc3ccccc23)s1, which IC50 (Protein skinhead-1) is on record?
Its IC50 is > 100 µM (inactive).

With Cc1cccc(NC(=O)CN2C(=O)N/C(=C/c3cc(C)n(C(C)C)c3C)C2=O)c1 as the molecule, how does the EC50 [9] read?
The EC50 was > 195 µM (not active).

And the AC50 [10]?
Its AC50 is 7.01 µM (active).

For CCn1cc(CN2CCC(C(=O)Nc3ccc(Oc4cccnc4)cc3)CC2)cn1, which AC50 [10] is on record?
Its AC50 is 37.3 µM (active).

And the EC50 (Streptokinase A)?
Its EC50 is > 150 µM (not active).

And the EC50 [11]?
The EC50 was > 150 µM (not active).

What about the EC50 (Streptococcus) of the same molecule?
Its EC50 is > 150 µM (not active).

For Cc1nn(-c2ccccc2)c2nc(O)cc(C(F)(F)F)c12, which IC50 [12] is on record?
The IC50 was 7.1 µM (active).

And the AC50 [13]?
Its AC50 is > 30 µM (inactive).

With CN(CC(=O)Nc1cccc(Cl)c1)S(=O)(=O)c1ccc2c(c1)n(C)c(=O)c(=O)n2C as the molecule, how does the AC50 [13] read?
Its AC50 is > 30 µM (inactive).

Which results are given for O=C1NC2C(=CC(O)C(O)C2O)c2cc3c(cc21)OCO3 (configuration not stated)?
GI50 (P388): 115 nM (active); GI50 (P388/ADR): 98.4 nM (active); AC50 [14]: 2.22 µM (active); AC50 [15]: 2.38 µM (active); AC50 [16]: 3.82 µM (active); GI50 (SN12K1): 234 nM (active); AC50 [17]: 53.9 µM (active); AC50 (Paired box protein Pax-8): 325 nM (active); IC50 (Protein skinhead-1): 64.3 µM (inactive); AC50 [18]: 0.738 µM (active); AC50 [19]: 3.78 µM (active)

For Fc1ccc2cc(-c3ccccc3)ncc2c1, which IC50 (Protein skinhead-1) is on record?
The IC50 was > 100 µM (inactive).

For COc1cccc(C(=O)NNC(=O)CCN2CCN(c3ccccc3)CC2)c1, which EC50 [20] is on record?
Its EC50 is 427 nM (active).

What about the EC50 (Mu-type opioid receptor) of the same molecule?
The EC50 was 92.4 µM (inactive).

Which AC50 [21] does the source give for C[C@@H]1CN([C@H](C)CO)S(=O)(=O)c2ccc(C#Cc3ccccc3)cc2O[C@H]1CN(C)C(=O)C1CC1 here?
The AC50 was 7.33 µM (active).

And the AC50 [22]?
The AC50 was 11.1 µM (active).

And the AC50 [15]?
The AC50 was 2.66 µM (active).

And the AC50 [18]?
The AC50 was 44.3 µM (active).
